Question: Which solubility (mole fraction) (in DMSO, 293.15 K) does the source give for `c1ccc2c(c1)CCc1ccccc1N2` here?
Answer: Its solubility (mole fraction) is 0.0199.

Question: What about the solubility (mole fraction) (in DMSO, 298.15 K) of the same molecule?
Answer: Its solubility (mole fraction) is 0.0239.

Question: And the solubility (mole fraction) (in DMSO, 303.15 K)?
Answer: Its solubility (mole fraction) is 0.0285.

Question: What about the solubility (mole fraction) (in DMSO, 308.15 K) of the same molecule?
Answer: The solubility (mole fraction) was 0.0336.

Question: And the solubility (mole fraction) (in DMSO, 313.15 K)?
Answer: Its solubility (mole fraction) is 0.0391.

Question: What about the solubility (mole fraction) (in DMSO, 318.15 K) of the same molecule?
Answer: Its solubility (mole fraction) is 0.045.

Question: And the solubility (mole fraction) (in DMSO, 323.15 K)?
Answer: Its solubility (mole fraction) is 0.0516.

Question: What about the solubility (mole fraction) (in DMSO, 328.15 K) of the same molecule?
Answer: Its solubility (mole fraction) is 0.0592.

Question: And the solubility (mole fraction) (in ethanol, 283.15 K)?
Answer: The solubility (mole fraction) was 0.000769.

Question: And the solubility (mole fraction) (in ethanol, 288.15 K)?
Answer: The solubility (mole fraction) was 0.00102.

Question: What about the solubility (mole fraction) (in ethanol, 293.15 K) of the same molecule?
Answer: The solubility (mole fraction) was 0.00136.

Question: What about the solubility (mole fraction) (in ethanol, 298.15 K) of the same molecule?
Answer: The solubility (mole fraction) was 0.00175.

Question: And the solubility (mole fraction) (in ethanol, 303.15 K)?
Answer: The solubility (mole fraction) was 0.00227.

Question: And the solubility (mole fraction) (in ethanol, 308.15 K)?
Answer: Its solubility (mole fraction) is 0.00284.

Question: And the solubility (mole fraction) (in ethanol, 313.15 K)?
Answer: The solubility (mole fraction) was 0.0036.

Question: What about the solubility (mole fraction) (in ethanol, 318.15 K) of the same molecule?
Answer: The solubility (mole fraction) was 0.00453.

Question: And the solubility (mole fraction) (in ethanol, 323.15 K)?
Answer: Its solubility (mole fraction) is 0.00558.

Question: What about the solubility (mole fraction) (in ethanol, 328.15 K) of the same molecule?
Answer: The solubility (mole fraction) was 0.00691.

Question: What about the solubility (mole fraction) (in ethylene glycol, 283.15 K) of the same molecule?
Answer: The solubility (mole fraction) was 0.000351.

Question: What about the solubility (mole fraction) (in ethylene glycol, 288.15 K) of the same molecule?
Answer: The solubility (mole fraction) was 0.000427.

Question: And the solubility (mole fraction) (in ethylene glycol, 293.15 K)?
Answer: Its solubility (mole fraction) is 0.000494.

Question: What about the solubility (mole fraction) (in ethylene glycol, 298.15 K) of the same molecule?
Answer: Its solubility (mole fraction) is 0.000566.

Question: What about the solubility (mole fraction) (in ethylene glycol, 303.15 K) of the same molecule?
Answer: Its solubility (mole fraction) is 0.000642.

Question: And the solubility (mole fraction) (in ethylene glycol, 308.15 K)?
Answer: Its solubility (mole fraction) is 0.000722.

Question: What about the solubility (mole fraction) (in ethylene glycol, 313.15 K) of the same molecule?
Answer: The solubility (mole fraction) was 0.000812.

Question: What about the solubility (mole fraction) (in ethylene glycol, 318.15 K) of the same molecule?
Answer: The solubility (mole fraction) was 0.000905.

Question: What about the solubility (mole fraction) (in ethylene glycol, 323.15 K) of the same molecule?
Answer: The solubility (mole fraction) was 0.00101.

Question: And the solubility (mole fraction) (in ethylene glycol, 328.15 K)?
Answer: Its solubility (mole fraction) is 0.00111.

Question: And the solubility (mole fraction) (in isopropanol, 283.15 K)?
Answer: The solubility (mole fraction) was 0.000448.

Question: What about the solubility (mole fraction) (in isopropanol, 288.15 K) of the same molecule?
Answer: The solubility (mole fraction) was 0.000585.

Question: And the solubility (mole fraction) (in isopropanol, 293.15 K)?
Answer: Its solubility (mole fraction) is 0.000783.

Question: And the solubility (mole fraction) (in isopropanol, 298.15 K)?
Answer: Its solubility (mole fraction) is 0.000992.

Question: What about the solubility (mole fraction) (in isopropanol, 303.15 K) of the same molecule?
Answer: The solubility (mole fraction) was 0.00127.

Question: What about the solubility (mole fraction) (in isopropanol, 308.15 K) of the same molecule?
Answer: Its solubility (mole fraction) is 0.00161.

Question: What about the solubility (mole fraction) (in isopropanol, 313.15 K) of the same molecule?
Answer: Its solubility (mole fraction) is 0.00204.

Question: What about the solubility (mole fraction) (in isopropanol, 318.15 K) of the same molecule?
Answer: Its solubility (mole fraction) is 0.00253.

Question: And the solubility (mole fraction) (in isopropanol, 323.15 K)?
Answer: Its solubility (mole fraction) is 0.00314.

Question: And the solubility (mole fraction) (in isopropanol, 328.15 K)?
Answer: Its solubility (mole fraction) is 0.00388.

Question: And the solubility (mole fraction) (in water, 283.15 K)?
Answer: The solubility (mole fraction) was 8.4e-07.

Question: What about the solubility (mole fraction) (in water, 288.15 K) of the same molecule?
Answer: The solubility (mole fraction) was 1.27e-06.

Question: And the solubility (mole fraction) (in water, 293.15 K)?
Answer: Its solubility (mole fraction) is 1.83e-06.

Question: And the solubility (mole fraction) (in water, 298.15 K)?
Answer: Its solubility (mole fraction) is 2.73e-06.

Question: And the solubility (mole fraction) (in water, 303.15 K)?
Answer: Its solubility (mole fraction) is 3.77e-06.

Question: And the solubility (mole fraction) (in water, 308.15 K)?
Answer: Its solubility (mole fraction) is 5.41e-06.

Question: What about the solubility (mole fraction) (in water, 313.15 K) of the same molecule?
Answer: The solubility (mole fraction) was 7.42e-06.

Question: And the solubility (mole fraction) (in water, 318.15 K)?
Answer: Its solubility (mole fraction) is 1.02e-05.

Question: And the solubility (mole fraction) (in water, 323.15 K)?
Answer: Its solubility (mole fraction) is 1.39e-05.

Question: What about the solubility (mole fraction) (in water, 328.15 K) of the same molecule?
Answer: Its solubility (mole fraction) is 1.87e-05.
